Measurements from patent US9029531B2 (Agios Pharmaceuticals, Inc., priority 2012, dated 2015).
pIC50: −log10 of the molar value.

Each compound was assayed against T1, glutaminase (GAC) (Homo sapiens, UniProt O94925) (assay: Glutaminase coupled endpoint enzymatic assay (Example A)). Settings: inhibition of glutaminase; assay of Example A or Example B.
T1 sequence (O94925 55-598 isoform O94925-3 limits assumed): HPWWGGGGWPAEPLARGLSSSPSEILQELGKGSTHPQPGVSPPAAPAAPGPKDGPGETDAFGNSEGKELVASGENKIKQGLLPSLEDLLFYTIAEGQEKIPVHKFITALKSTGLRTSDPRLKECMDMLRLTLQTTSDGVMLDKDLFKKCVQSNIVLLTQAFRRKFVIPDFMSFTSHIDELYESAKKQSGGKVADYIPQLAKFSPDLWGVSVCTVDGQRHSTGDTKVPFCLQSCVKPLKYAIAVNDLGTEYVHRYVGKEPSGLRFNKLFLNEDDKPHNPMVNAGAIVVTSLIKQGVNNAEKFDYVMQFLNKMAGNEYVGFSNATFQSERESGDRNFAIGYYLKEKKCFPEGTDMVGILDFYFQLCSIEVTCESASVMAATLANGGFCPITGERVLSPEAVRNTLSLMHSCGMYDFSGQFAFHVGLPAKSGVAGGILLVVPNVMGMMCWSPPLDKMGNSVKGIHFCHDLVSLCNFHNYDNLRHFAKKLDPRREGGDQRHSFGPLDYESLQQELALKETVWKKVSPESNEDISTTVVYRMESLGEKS
Assay type: biochemical
Summary of the method: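 Endpoint coupled assay: glutamate formed by GAC drives GDH NADH production, recycled by diaphorase reducing resazurin to fluorescent resorufin (Ex544/Em590) after SDS stop. Buffer pH 8.5 with phosphate; glutamine at Km; enzyme preincubated with compound 60 min at room temperature.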
For `CC(=O)Nc1nnc([C@H]2CCC[C@H](c3nnc(NC(=O)Cc4ccc(N5CC(F)(F)C5)cn4)s3)C2)s1` [Compound 253, N-(5-((1S,3S)-3-(5-acetamido-1,3,4-thiadiazol-2-yl)cyclohexyl)-1,3,4-thiadiazol-2-yl)-2-(5-(3,3-difluoroazetidin-1-yl)pyridin-2-yl)acetamide], the pIC50 was 6.30 to 7.00. For `COc1ccnc(CC(=O)Nc2nnc([C@H]3CC[C@H](c4nnc(NC(=O)Cc5cc(OC)ccn5)s4)C3)s2)c1` [Compound 287], the pIC50 was > 7.00. In the case of `O=C(Cc1cccc(N2CC(F)(F)C2)c1)Nc1nnc([C@H]2CCC[C@H](c3nnc(NC(=O)Cc4cccc(N5CC(F)(F)C5)c4)s3)C2)s1` [Compound 269], the pIC50 was 6.30 to 7.00. `O=C(Cc1ccccc1)Nc1nnc([C@H]2CCC[C@H](c3nnc(NC(=O)Cc4ccccc4)s3)C2)s1` [Compound 9, N,N′-(5,5′-((1S,3S)-cyclohexane-1,3-diyl)bis(1,3,4-thiadiazole-5,2-diyl))bis(2-phenylacetamide)] was tested, and the pIC50 was > 7.00. `Nc1nc(CC(=O)Nc2nnc([C@H]3CCC[C@H](c4nnc(NC(=O)Cc5csc(N)n5)s4)C3)s2)cs1` [Compound 274, N,N′-(5,5′-((1S,3S)-cyclohexane-1,3-diyl)bis(1,3,4-thiadiazole-5,2-diyl))bis(2-(2-aminothiazol-4-yl)acetamide)] was tested, and the pIC50 was > 7.00. With `COc1ccccc1CC(=O)Nc1nnc([C@@H]2CC[C@@H](c3nnc(NC(=O)Cc4ccccc4OC)s3)C2)s1` [Compound 117] the pIC50 was 6.00 to 6.30. `COc1ccc(CC(=O)Nc2nnc([C@H]3CC[C@H](c4nnc(NC(=O)Cc5ccc(OC)nc5)s4)C3)s2)cn1` [Compound 286, N,N′-(5,5′-((1S,3S)-cyclopentane-1,3-diyl)bis(1,3,4-thiadiazole-5,2-diyl))bis(2-(6-methoxypyridin-3-yl)acetamide)] was tested, and the pIC50 was > 7.00. In the case of `COc1ccc(CC(=O)Nc2nnc([C@H]3CCC[C@H](c4nnc(NC(=O)Cc5ccc(OC)cn5)s4)C3)s2)nc1` [Compound 225, N,N′-(5,5′-((1S,3S)-cyclohexane-1,3-diyl)bis(1,3,4-thiadiazole-5,2-diyl))bis(2-(5-methoxypyridin-2-yl)acetamide)], the pIC50 was > 7.00. With `COc1ccccc1CC(=O)Nc1nnc([C@H]2CCC[C@H](c3nnc(NC(=O)Cc4ccccn4)s3)C2)s1` [Compound 79, 2-(2-methoxyphenyl)-N-(5-((1S,3S)-3-(5-(2-(pyridin-2-yl)acetamido)-1,3,4-thiadiazol-2-yl)cyclohexyl)-1,3,4-thiadiazol-2-yl)acetamide] the pIC50 was > 7.00. With `O=C(Cc1ccc(N2CCOCC2)cc1)Nc1nnc([C@H]2CCC[C@H](c3nnc(NC(=O)Cc4ccc(N5CCOCC5)cc4)s3)C2)s1` [Compound 265, N,N′-(5,5′-((1S,3S)-cyclohexane-1,3-diyl)bis(1,3,4-thiadiazole-5,2-diyl))bis(2-(4-morpholinophenyl)acetamide)] the pIC50 was 6.30 to 7.00. For `NCc1cccc(CC(=O)Nc2nnc([C@H]3CCC[C@H](c4nnc(NC(=O)Cc5cccc(CN)c5)s4)C3)s2)c1` [Compound 245, N,N′-(5,5′-((1S,3S)-cyclohexane-1,3-diyl)bis(1,3,4-thiadiazole-5,2-diyl))bis(2-(3-(aminomethyl)phenyl)acetamide)], the pIC50 was > 7.00. With `CC(=O)Nc1nnc([C@H]2CCC[C@H](c3nnc(NC(=O)Cc4ccccn4)s3)C2)s1` [Compound 93, N-(5-((1S,3S)-3-(5-acetamido-1,3,4-thiadiazol-2-yl)cyclohexyl)-1,3,4-thiadiazol-2-yl)-2-(pyridin-2-yl)acetamide] the pIC50 was > 7.00. For `CC(=O)Nc1nnc([C@H]2CCC[C@H](c3nnc(NC(=O)Cc4cccc(N5CC(F)(F)C5)n4)s3)C2)s1` [Compound 281, N-(5-((1S,3S)-3-(5-acetamido-1,3,4-thiadiazol-2-yl)cyclohexyl)-1,3,4-thiadiazol-2-yl)-2-(6-(3,3-difluoroazetidin-1-yl)pyridin-2-yl)acetamide], the pIC50 was > 7.00. `COc1cccc(CC(=O)Nc2nnc([C@@H]3CCCC[C@@H](c4nnc(NC(=O)Cc5cccc(OC)c5)s4)C3)s2)c1` [Compound 129] was tested, and the pIC50 was 6.00 to 6.30. In the case of `O=C(Cc1ccccc1)Nc1nnc([C@@H]2CCC[C@H](c3nnc(NC(=O)Cc4ccccc4)s3)C2)s1` [Compound 10, N,N′-(5,5′-((1R,3S)-cyclohexane-1,3-diyl)bis(1,3,4-thiadiazole-5,2-diyl))bis(2-phenylacetamide)], the pIC50 was 5.70 to 6.00. In the case of `CN(C)C(=O)c1ccc(CC(=O)Nc2nnc([C@H]3CCC[C@H](c4nnc(NC(=O)Cc5ccc(C(=O)N(C)C)cn5)s4)C3)s2)nc1` [Compound 234, 6-[[5-[3-[5-[[2-[5-(dimethylcarbamoyl)pyridin-2-yl]acetyl]amino]-1,3,4-thiadiazol-2-yl]cyclohexyl]-1,3,4-thiadiazol-2-yl]carbamoylmethyl]-N,N-dimethyl-pyridine-3-carboxamide], the pIC50 was 6.30 to 7.00. With `O=C(Cc1cscn1)Nc1nnc([C@H]2CCC[C@H](c3nnc(NC(=O)Cc4cscn4)s3)C2)s1` [Compound 222, N,N′-(5,5′-((1S,3S)-cyclohexane-1,3-diyl)bis(1,3,4-thiadiazole-5,2-diyl))bis(2-(thiazol-4-yl)acetamide)] the pIC50 was > 7.00. With `CCN(CC)c1ccc(CC(=O)Nc2nnc([C@H]3CCC[C@H](c4nnc(NC(=O)Cc5ccc(N(CC)CC)cc5)s4)C3)s2)cc1` [Compound 237, N,N′-(5,5′-((1S,3S)-cyclohexane-1,3-diyl)bis(1,3,4-thiadiazole-5,2-diyl))bis(2-(4-(diethylamino)phenyl)acetamide)] the pIC50 was 6.00 to 6.30. Work on `CC(C)C(=O)Nc1nnc([C@@H]2CCC[C@@H](c3nnc(NC(=O)C(C)C)s3)C2)s1` [Compound 38] yielded a pIC50 of 6.30 to 7.00. `O=C(Cc1ccccc1)Nc1nnc([C@@H]2CCC[C@@H](c3nnc(NC(=O)Cc4ccccc4)s3)C2)s1` [Compound 11, N,N′-(5,5′-((1R,3R)-cyclohexane-1,3-diyl)bis(1,3,4-thiadiazole-5,2-diyl))bis(2-phenylacetamide)] was tested, and the pIC50 was > 7.00. With `CCOc1ccc(CC(=O)Nc2nnc([C@H]3CCC[C@H](c4nnc(NC(=O)Cc5ccc(OCC)cn5)s4)C3)s2)nc1` [Compound 226, N,N′-(5,5′-((1S,3S)-cyclohexane-1,3-diyl)bis(1,3,4-thiadiazole-5,2-diyl))bis(2-(5-ethoxypyridin-2-yl)acetamide)] the pIC50 was > 7.00. In the case of `O=C(Cc1cccc2[nH]ccc12)Nc1nnc([C@@H]2CCC[C@H](c3nnc(NC(=O)Cc4cccc5[nH]ccc45)s3)C2)s1` [Compound 25, N,N′-(5,5′-((1S,3R)-cyclohexane-1,3-diyl)bis(1,3,4-thiadiazole-5,2-diyl))bis(2-(1H-indol-4-yl)acetamide)], the pIC50 was 6.00 to 6.30. With `O=C(Cc1c[nH]cn1)Nc1nnc([C@H]2CCC[C@H](c3nnc(NC(=O)Cc4c[nH]cn4)s3)C2)s1` [Compound 273, N,N′-(5,5′-((1S,3S)-cyclohexane-1,3-diyl)bis(1,3,4-thiadiazole-5,2-diyl))bis(2-(1H-imidazol-4-yl)acetamide)] the pIC50 was > 7.00. In the case of `O=C(Cc1ccc(C2CCNCC2)cc1)Nc1nnc([C@H]2CCC[C@H](c3nnc(NC(=O)Cc4ccc(C5CCNCC5)cc4)s3)C2)s1` [Compound 290], the pIC50 was > 7.00. Compound `Nc1nnc([C@@H]2CCC[C@@H](c3nnc(NC(=O)Cc4ccccn4)s3)C2)s1` [Compound 58] has a pIC50 of 5.70 to 6.00. For `COc1ccccc1CC(=O)Nc1nnc(C2CCC(c3nnc(NC(=O)Cc4ccccc4OC)s3)C2)s1` (stereo not drawn) [Compound 67], the pIC50 was 6.30 to 7.00. With `O=C(Cc1ccccn1)Nc1nnc([C@@H]2CC[C@@H](c3nnc(NC(=O)Cc4ccccn4)s3)C2)s1` [Compound 33] the pIC50 was > 7.00. `NCc1cccc(CC(=O)Nc2nnc([C@H]3CCC[C@H](c4nnc(NC(=O)Cc5cccc(CN)n5)s4)C3)s2)n1` [Compound 244, N,N′-(5,5′-((1S,3S)-cyclohexane-1,3-diyl)bis(1,3,4-thiadiazole-5,2-diyl))bis(2-(6-(aminomethyl)pyridin-2-yl)acetamide)] showed a pIC50 of 6.30 to 7.00. `O=C(Cc1cccc([N+](=O)[O-])c1)Nc1nnc(C2CCC(c3nnc(NC(=O)Sc4cccc([N+](=O)[O-])c4)s3)C2)s1` (stereo not drawn) [Compound 110] was tested, and the pIC50 was 6.30 to 7.00. `CN(C)c1cccc(CC(=O)Nc2nnc([C@H]3CC[C@H](c4nnc(NC(=O)Cc5cccc(N(C)C)c5)s4)C3)s2)c1` [Compound 285, N,N′-(5,5′-((1S,3S)-cyclopentane-1,3-diyl)bis(1,3,4-thiadiazole-5,2-diyl))bis(2-(3-(dimethylamino)phenyl)acetamide)] was tested, and the pIC50 was > 7.00. In the case of `COc1ccc(CC(=O)Nc2nnc([C@@H]3CCC[C@@H](c4nnc(NC(=O)Cc5ccc(OC)cc5)s4)C3)s2)cc1` (stereo in doubt) [Compound 52, N,N′-(5,5′-((1S,3S)-cyclohexane-1,3-diyl)bis(1,3,4-thiadiazole-5,2-diyl))bis(2-(4-methoxyphenyl)acetamide)], the pIC50 was > 7.00. In the case of `CNc1nc(CC(=O)Nc2nnc([C@H]3CCC[C@H](c4nnc(NC(=O)Cc5csc(NC)n5)s4)C3)s2)cs1` [Compound 275, N,N′-(5,5′-((1S,3S)-cyclohexane-1,3-diyl)bis(1,3,4-thiadiazole-5,2-diyl))bis(2-(2-(methylamino)thiazol-4-yl)acetamide)], the pIC50 was > 7.00. With `COc1cccc(CC(=O)Nc2nnc([C@@H]3CCCC[C@H](c4nnc(NC(=O)Cc5cccc(OC)c5)s4)C3)s2)c1` [Compound 128] the pIC50 was 6.00 to 6.30.
